From US20240000863A1, “Skin Probiotics” (The Regents of the University of California, priority 2021, published 2024) come the findings set out here.

One test has as its target T1, KLK5 (Homo sapiens, UniProt Q9Y337).
T1 sequence (Q9Y337 23-293): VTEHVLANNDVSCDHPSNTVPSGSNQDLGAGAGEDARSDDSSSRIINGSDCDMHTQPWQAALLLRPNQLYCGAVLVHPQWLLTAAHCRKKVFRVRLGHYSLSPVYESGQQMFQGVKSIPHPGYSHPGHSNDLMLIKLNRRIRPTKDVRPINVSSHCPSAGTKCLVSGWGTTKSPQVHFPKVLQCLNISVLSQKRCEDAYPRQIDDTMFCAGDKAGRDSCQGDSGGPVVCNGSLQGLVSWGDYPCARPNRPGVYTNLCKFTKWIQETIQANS
Description: KLK5 inhibition assay (Acetyl-YASR-paranitroanilide, absorbance 405 nm). It counts as biochemical. The settings on record: over 30 minutes; leupeptin at 100 uM. As to the method:
The KLK5 inhibition assay is the foremost method to determine inhibition of KLK5. In the assay, KLK5 is incubated with the substrate Acetyl-YASR-paranitroanilide Uninhibited, KLK5 cleaves the substrate Acetyl-YASR at the arginine position […], releasing para-nitroanilide, a chromophore with absorbance 405 nm, resulting in increased absorption at that wavelength. When inhibited, the substrate Acetyl-YASR-paranitroanilide remains intact, and there is no increase in absorption at 405 nm. As a positive control, we used the absence of any inhibitor and the addition of purified Red Fluorescent Protein (RFP). As negative controls, we used a substrate only addition (no KLK5 is added) as well as a 100 uM addition of purified leupeptin, which is known to inhibit KLK5 at high concentrations.

In test [1] the target is T2, KLK5 protein (kallikrein 5) (UniProt Q9Y337 67-293, limits assumed).
T2 sequence (looked up): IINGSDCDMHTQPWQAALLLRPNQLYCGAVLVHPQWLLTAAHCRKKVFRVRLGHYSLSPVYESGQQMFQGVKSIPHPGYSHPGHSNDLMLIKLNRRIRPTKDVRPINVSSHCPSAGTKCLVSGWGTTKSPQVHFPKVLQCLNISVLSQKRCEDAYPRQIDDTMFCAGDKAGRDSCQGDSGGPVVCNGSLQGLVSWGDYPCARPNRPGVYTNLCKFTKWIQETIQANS
Description: cell-based or functional assay.

For `CC(=O)N[C@@H](CC(C)C)C(=O)N[C@@H](CC(C)C)C(=O)N[C@H](C=O)CCCNC(=N)N` [leupeptin], the “change of absorbance at 405 nm” value on KLK5 is given as “very little increasing absorbance”.

B1: LEKTI-D6 protein (lymphoepithelial Kazal-Type-related protease inhibitor, domain 6), secreted by C. glutamicum and purified (other)
chain: MESGKATSYAELCNEYRKLVRNGKLACTRENDPIQGPDGKVHGNTCSMCEVFFQAEEEEKKKKEGESRNKR
In the case of B1, the “KLK5 inhibition assay (cleavage of Acetyl-YASR-paranitroanilide, absorbance at 405 nm), IC50” value in test [1] is 89 nM.
